Test results published in patent US20260174875A1 (Novo Nordisk A/S, priority 2023, published 2026).
Where two headings read alike, the source gives them in different places.

Assays:
Type in all cases: cell-based
[1] = molecular target: T1, human GLP-1 receptor (hGLP-1R) (Homo sapiens, UniProt P43220); assay: GLP-1 receptor assay, method B (CRE-luciferase reporter, BHK cells, 384-well)
T1 construct: expressed in transfected cells

[2] = molecular target: T2, human GIP receptor (hGIPR) (Homo sapiens, UniProt P48546); assay: GIP receptor assay, method B (CRE-luciferase reporter, BHK cells, 384-well)
T2 construct: expressed in transfected cells
T2 sequence (P48546 22-466): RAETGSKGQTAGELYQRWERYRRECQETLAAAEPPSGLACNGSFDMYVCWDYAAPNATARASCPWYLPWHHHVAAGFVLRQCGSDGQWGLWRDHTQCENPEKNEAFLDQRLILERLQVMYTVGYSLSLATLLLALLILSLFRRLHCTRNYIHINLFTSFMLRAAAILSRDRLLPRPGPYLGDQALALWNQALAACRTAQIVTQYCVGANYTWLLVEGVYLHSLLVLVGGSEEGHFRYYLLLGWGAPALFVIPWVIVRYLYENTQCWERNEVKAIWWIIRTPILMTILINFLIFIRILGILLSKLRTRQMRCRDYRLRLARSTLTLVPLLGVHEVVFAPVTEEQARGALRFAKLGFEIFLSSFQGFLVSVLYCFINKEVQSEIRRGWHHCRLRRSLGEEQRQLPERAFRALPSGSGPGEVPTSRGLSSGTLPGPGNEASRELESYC
Excerpt: Activation of the human GIP receptor leads to increased intra-cellular concentrations of cyclic AMP (cAMP) and the consequent transcription activation from promoters containing multiple copies of the cAMP response element (CRE). It is thus possible to measure GIP receptor activity using a CRE-luciferase reporter gene introduced into Baby Hamster Kidney (BHK) cells co-expressing the human GIP receptor.
Cells at about 80-90% confluency were washed once with PBS (Gibco 14190-094) and detached from the cell flasks with Versene (Gibco, 15040-066). After centrifugation, the cells were counted, resuspended and diluted to approximately 1.5-3.0×10^6 (1.5E+6 to 3.0E+6) cells/mL in Recovery Cell Culture Freezing Medium (Gibco, 12648-010) and stored at −180° C. in suitable aliquots until use.
The assay buffer consisted of DMEM without phenol red (Gibco, 11880-028) supplemented with 1× GlutaMAX (Gibco, 35050-038), 10 mM HEPES (Gibco, 15630-056), 1% (w/v) ovalbumin (Sigma, A5503) and 0.1% (v/v) Pluronic F-68 (Gibco, 24040-032) either with HSA or without HSA (Sigma, A9511).
Serial dilutions were transferred to a 384-well assay plate (PerkinElmer/Revvity, 6007688) and mixed with an equal volume (10 μL) of assay buffer without or with 3% HSA (Sigma, A-9511). Frozen stocks of hGIPR BHK Cre-Luc cells were thawed in a 37° C. water bath, washed once in PBS (Gibco 14190-094), diluted to 1.5×10^5 (1.5E+5) cells/mL in assay buffer (without HSA) and added (10 μL) to each well of the 384-well assay plate. After a short centrifugation, the assay plates were incubated for 3 hours at 37° C. in 5% CO2 and let to equilibrated at room temperature for 10 minutes before the addition of 30 μL steadylite Plus™ (PerkinElmer/Revvity, 6066759) per well. Plates were sealed and incubated at room temperature with gentle shaking for 30 minutes while protected from light. Luminescence was detected on a luminescence plate reader e.g. a Synergy 2 (BioTek).

[3] = molecular target: T3, human amylin receptor (hAMYR3) (Homo sapiens, UniProt O60896+P30988); assay: Amylin receptor assay, method B (CRE-luciferase reporter, BHK cells)
T3 construct: host or cells: BHK cells (Hollex-1 line expressing hCTR(a) and CRE-Luc), further transfected with human RAMP3
Method: To assess how the activation of the receptors is potentially influenced by the presence of human serum albumin (HSA), the in vitro assays were performed in the absence of HSA and presence of 1% (w/v) HSA.
It is thus possible to measure hAMYR3 activity using a CRE-luciferase reporter gene introduced into Baby Hamster Kidney (BHK) cells co-expressing the hAMYR3.
The cell line was further transfected with human receptor modifying protein 3 (RAMP3) using standard methods.
After centrifugation, the cell pellet was resuspended and diluted to approximately 2.5-4.0×10^6 (2.5E+6 to 4.0E+6) cells/mL in Recovery™ Cell Culture Freezing Medium (Gibco, 12648-010). Cells were aliquoted and stored at −180° C. until use.
The assay buffer consisted of DMEM without phenol red (Gibco, 11880-028) supplemented with 1× GlutaMAX (Gibco, 35050-038), 10 mM HEPES (Gibco, 15630-056) and 1% (w/v) ovalbumin (Sigma, A5503) either with or without 0.1% (v/v) Pluronic F-68 (Gibco, 24040-032) and either with or without HSA (Sigma, A9511).
To perform the assay, hAMYR3 BHK Cre-Luc cells were thawed, washed once in PBS (Gibco 14190-094) and seeded in 40 μL growth medium in a white 384-well culture plate (PerkinElmer/Revvity, 6007688) at a cell density of 4.0×10^3 (4.0E+3) cells/well the day before the experiment. The plate was incubated over night at 37° C. in 5% CO2. […] Serial dilutions were then mixed in a new 96-well plate with equal volume (1:1:1 ratio) of assay buffer and either assay buffer without or with 3% HSA (Sigma, A-9511). Twenty microliters of the solution mix were transferred to the cells which previously were washed once with PBS (Gibco 14190-094). After a short centrifugation, the assay plates were incubated for 3 hours at 37° C. in 5% CO2 and let to equilibrated at room temperature for 10 minutes before the addition of 30 μL steadylite Plus™ PerkinElmer/Revvity, 6066759) per well. Plates were sealed and incubated at room temperature with gentle shaking for 30 minutes while protected from light. Luminescence was detected on a luminescence plate reader e.g., a Synergy 2 (BioTek).

[4] = hGLP-1R Potency, 1% HSA, EC50, methods B, in the presence of 1% HSA
[5] = method B, absence of HSA, read-out: hGLP-1R Potency, no HSA, EC50
[6] = hGIPR Potency, 1% HSA, EC50, methods B, in the presence of 1% HSA
[7] = method B, absence of HSA, read-out: hGIPR Potency, no HSA, EC50
[8] = hAMYR3 Potency, 1% HSA, EC50, methods B, in the presence of 1% HSA
[9] = method B, absence of HSA, read-out: hAMYR3 Potency, no HSA, EC50

T3 sequence (P30988 25-474): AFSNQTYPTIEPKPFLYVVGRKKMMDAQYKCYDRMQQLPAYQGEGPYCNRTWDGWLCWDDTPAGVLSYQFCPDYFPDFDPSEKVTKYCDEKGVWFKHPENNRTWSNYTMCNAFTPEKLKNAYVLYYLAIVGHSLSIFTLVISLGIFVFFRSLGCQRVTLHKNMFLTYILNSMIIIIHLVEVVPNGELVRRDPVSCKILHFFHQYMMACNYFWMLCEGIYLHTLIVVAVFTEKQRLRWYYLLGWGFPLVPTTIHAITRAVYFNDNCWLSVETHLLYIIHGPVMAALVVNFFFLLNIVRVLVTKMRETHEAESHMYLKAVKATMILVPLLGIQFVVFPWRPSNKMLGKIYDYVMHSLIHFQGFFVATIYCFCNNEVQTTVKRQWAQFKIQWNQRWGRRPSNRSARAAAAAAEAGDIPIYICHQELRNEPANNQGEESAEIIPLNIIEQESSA
T3 sequence (O60896 24-148): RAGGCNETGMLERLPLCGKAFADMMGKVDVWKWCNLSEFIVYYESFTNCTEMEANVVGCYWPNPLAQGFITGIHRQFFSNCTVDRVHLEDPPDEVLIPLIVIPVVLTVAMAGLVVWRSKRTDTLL
T1 sequence (P43220 24-463): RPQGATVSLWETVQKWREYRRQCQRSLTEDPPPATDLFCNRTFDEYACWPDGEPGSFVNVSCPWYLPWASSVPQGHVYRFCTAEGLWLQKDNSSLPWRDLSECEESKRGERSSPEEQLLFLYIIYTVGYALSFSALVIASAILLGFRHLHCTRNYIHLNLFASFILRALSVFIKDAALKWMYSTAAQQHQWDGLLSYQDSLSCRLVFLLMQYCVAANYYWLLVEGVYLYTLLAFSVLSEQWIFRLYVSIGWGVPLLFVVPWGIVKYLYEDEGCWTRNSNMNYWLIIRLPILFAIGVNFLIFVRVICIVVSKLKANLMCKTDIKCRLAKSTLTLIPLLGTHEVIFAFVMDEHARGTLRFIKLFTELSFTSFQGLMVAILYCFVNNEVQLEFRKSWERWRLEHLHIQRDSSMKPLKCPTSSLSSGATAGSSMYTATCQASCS

Compound	EC50 [1, 4]	EC50 [1, 5]	EC50 [2, 6]	EC50 [2, 7]	EC50 [3, 8]	EC50 [3, 9]
CC[C@H](C)[C@H](NC(=O)[C@H](CCC(=O)O)NC(=O)[C@H](CCC(=O)O)NC(=O)[C@H](CC(C)C)NC(=O)[C@H](CC(C)C)NC(=O)[C@@H](NC(=O)[C@H](CO)NC(=O)[C@H](Cc1ccc(O)cc1)NC(=O)[C@H](CC(=O)O)NC(=O)[C@H](CO)NC(=O)[C@@H](NC(=O)[C@H](Cc1ccccc1)NC(=O)[C@@H](NC(=O)CNC(=O)[C@H](CCC(=O)O)NC(=O)C(C)(C)NC(=O)[C@@H](N)Cc1ccc(O)cc1)[C@@H](C)O)[C@@H](C)O)[C@@H](C)CC)C(=O)N[C@@H](C)C(=O)N[C@@H](C)C(=O)N[C@@H](CCCNC(=N)N)C(=O)N[C@@H](CCC(=O)O)C(=O)N[C@@H](Cc1ccccc1)C(=O)N[C@H](C(=O)N[C@@H](CCC(=O)O)C(=O)N[C@@H](Cc1c[nH]c2ccccc12)C(=O)N[C@@H](CC(C)C)C(=O)N[C@@H](CC(C)C)C(=O)N[C@@H](C)C(=O)NCC(=O)NCC(=O)N1CCC[C@H]1C(=O)N[C@@H](CO)C(=O)N[C@@H](CO)C(=O)NCC(=O)N[C@@H](C)C(=O)NCC(=O)N[C@@H](CCC(N)=O)C(=O)N[C@@H](C)C(=O)N1CCC[C@H]1C(=O)N[C@@H](CCC(=O)O)C(=O)N[C@@H](CCC(N)=O)C(=O)N[C@@H](C)C(=O)N1CCC[C@H]1C(=O)NCC(=O)N[C@@H](C)C(=O)N[C@@H](CO)C(=O)N[C@@H](Cc1c[nH]cn1)C(=O)N[C@@H](CC(C)C)C(=O)N[C@@H](CO)C(=O)N[C@H](C(=O)N[C@@H](C)C(=O)N[C@@H](CCC(N)=O)C(=O)N[C@H](C(=O)N[C@@H](CCC(N)=O)C(=O)N[C@@H](CCCNC(=N)N)C(=O)N[C@@H](CC(C)C)C(=O)N[C@@H](CO)C(=O)N[C@@H](C)C(=O)N[C@@H](CCC(=O)O)C(=O)N[C@@H](CC(C)C)C(=O)N[C@@H](Cc1c[nH]cn1)C(=O)N[C@@H](CCCCNC(=O)COCCOCCNC(=O)COCCOCCNC(=O)CC[C@H](NC(=O)CCCCCCCCCCCCCCCCCCC(=O)O)C(=O)O)C(=O)N[C@@H](CC(C)C)C(=O)N[C@@H](C)C(=O)N[C@H](C(=O)N[C@@H](CC(C)C)C(=O)N1CCC[C@H]1C(=O)N[C@@H](CCCNC(=N)N)C(=O)N[C@H](C(=O)N[C@@H](CCC(=O)O)C(=O)N[C@H](C(=O)NCC(=O)N[C@@H](CO)C(=O)NCC(=O)N[C@@H](CO)C(=O)N1CCC[C@H]1C(N)=O)[C@@H](C)O)[C@@H](C)O)[C@@H](C)O)[C@@H](C)O)[C@@H](C)O)[C@@H](C)CC [Compound 151]	0.0726 nM	0.0277 nM	0.0139 nM	0.00399 nM	0.95 nM	0.00967 nM
CC[C@H](C)[C@H](NC(=O)[C@H](CCC(=O)O)NC(=O)[C@H](CCC(=O)O)NC(=O)[C@H](CC(C)C)NC(=O)[C@H](CC(C)C)NC(=O)[C@@H](NC(=O)[C@H](CO)NC(=O)[C@H](Cc1ccc(O)cc1)NC(=O)[C@H](CC(=O)O)NC(=O)[C@H](CO)NC(=O)[C@@H](NC(=O)[C@H](Cc1ccccc1)NC(=O)[C@@H](NC(=O)CNC(=O)[C@H](CCC(=O)O)NC(=O)C(C)(C)NC(=O)[C@@H](N)Cc1ccc(O)cc1)[C@@H](C)O)[C@@H](C)O)[C@@H](C)CC)C(=O)N[C@@H](C)C(=O)N[C@@H](C)C(=O)N[C@@H](CCCNC(=N)N)C(=O)N[C@@H](CCC(=O)O)C(=O)N[C@@H](Cc1ccccc1)C(=O)N[C@H](C(=O)N[C@@H](CCC(=O)O)C(=O)N[C@@H](Cc1c[nH]c2ccccc12)C(=O)N[C@@H](CC(C)C)C(=O)N[C@@H](CC(C)C)C(=O)N[C@@H](C)C(=O)NCC(=O)NCC(=O)N1CCC[C@H]1C(=O)N[C@@H](CO)C(=O)N[C@@H](CO)C(=O)NCC(=O)N[C@@H](C)C(=O)NCC(=O)N[C@@H](CCC(N)=O)C(=O)N[C@@H](C)C(=O)N1CCC[C@H]1C(=O)NCC(=O)N[C@@H](CCC(=O)O)C(=O)N[C@@H](C)C(=O)N1CCC[C@H]1C(=O)NCC(=O)N[C@@H](C)C(=O)N[C@@H](CO)C(=O)N[C@@H](Cc1c[nH]cn1)C(=O)N[C@@H](CC(C)C)C(=O)N[C@@H](CO)C(=O)N[C@H](C(=O)N[C@@H](C)C(=O)N[C@@H](CCC(N)=O)C(=O)N[C@H](C(=O)N[C@@H](CCC(N)=O)C(=O)N[C@@H](CCCNC(=N)N)C(=O)N[C@@H](CC(C)C)C(=O)N[C@@H](CO)C(=O)N[C@@H](C)C(=O)N[C@@H](CCC(=O)O)C(=O)N[C@@H](CC(C)C)C(=O)N[C@@H](Cc1c[nH]cn1)C(=O)N[C@@H](CCCCNC(=O)COCCOCCNC(=O)COCCOCCNC(=O)CC[C@H](NC(=O)CCCCCCCCCCCCCCCCCCC(=O)O)C(=O)O)C(=O)N[C@@H](CC(C)C)C(=O)N[C@@H](C)C(=O)N[C@H](C(=O)N[C@@H](CC(C)C)C(=O)N1CCC[C@H]1C(=O)N[C@@H](CCCNC(=N)N)C(=O)N[C@H](C(=O)N[C@@H](CCC(=O)O)C(=O)N[C@H](C(=O)NCC(=O)N[C@@H](CO)C(=O)NCC(=O)N[C@@H](CO)C(=O)N1CCC[C@H]1C(N)=O)[C@@H](C)O)[C@@H](C)O)[C@@H](C)O)[C@@H](C)O)[C@@H](C)O)[C@@H](C)CC [Compound 152]	0.0674 nM	0.0224 nM	0.0114 nM	0.00383 nM	0.914 nM	0.0085 nM
CC[C@H](C)[C@H](NC(=O)[C@H](CCC(=O)O)NC(=O)[C@H](CCC(=O)O)NC(=O)[C@H](CC(C)C)NC(=O)[C@H](CC(C)C)NC(=O)[C@@H](NC(=O)[C@H](CO)NC(=O)[C@H](Cc1ccc(O)cc1)NC(=O)[C@H](CC(=O)O)NC(=O)[C@H](CO)NC(=O)[C@@H](NC(=O)[C@H](Cc1ccccc1)NC(=O)[C@@H](NC(=O)CNC(=O)[C@H](CCC(=O)O)NC(=O)C(C)(C)NC(=O)[C@@H](N)Cc1ccc(O)cc1)[C@@H](C)O)[C@@H](C)O)[C@@H](C)CC)C(=O)N[C@@H](C)C(=O)N[C@@H](C)C(=O)N[C@@H](CCCNC(=N)N)C(=O)N[C@@H](CCC(=O)O)C(=O)N[C@@H](Cc1ccccc1)C(=O)N[C@H](C(=O)N[C@@H](CCC(=O)O)C(=O)N[C@@H](Cc1c[nH]c2ccccc12)C(=O)N[C@@H](CC(C)C)C(=O)N[C@@H](CC(C)C)C(=O)N[C@@H](C)C(=O)NCC(=O)NCC(=O)N1CCC[C@H]1C(=O)N[C@@H](CO)C(=O)N[C@@H](CO)C(=O)NCC(=O)N[C@@H](C)C(=O)NCC(=O)N[C@@H](C)C(=O)N[C@@H](CO)C(=O)N[C@@H](Cc1c[nH]cn1)C(=O)N[C@@H](CC(C)C)C(=O)N[C@@H](CO)C(=O)N[C@H](C(=O)N[C@@H](C)C(=O)N[C@@H](CCC(N)=O)C(=O)N[C@H](C(=O)N[C@@H](CCC(N)=O)C(=O)N[C@@H](CCCNC(=N)N)C(=O)N[C@@H](CC(C)C)C(=O)N[C@@H](CO)C(=O)N[C@@H](C)C(=O)N[C@@H](CCC(=O)O)C(=O)N[C@@H](CC(C)C)C(=O)N[C@@H](Cc1c[nH]cn1)C(=O)N[C@@H](CCCCNC(=O)COCCOCCNC(=O)COCCOCCNC(=O)CC[C@H](NC(=O)CCCCCCCCCCCCCCCCCCC(=O)O)C(=O)O)C(=O)N[C@@H](CC(C)C)C(=O)N[C@@H](C)C(=O)N[C@H](C(=O)N[C@@H](CCC(=O)O)C(=O)N1CCC[C@H]1C(=O)N[C@@H](CCCNC(=N)N)C(=O)N[C@H](C(=O)N[C@@H](CCC(=O)O)C(=O)N[C@H](C(=O)NCC(=O)N[C@@H](CO)C(=O)NCC(=O)N[C@@H](CO)C(=O)N1CCC[C@H]1C(N)=O)[C@@H](C)O)[C@@H](C)O)[C@@H](C)O)[C@@H](C)O)[C@@H](C)O)[C@@H](C)CC [Compound 179]	0.17 nM	0.0233 nM	0.0255 nM	0.00436 nM	1.35 nM	0.01 nM
